Biological target: T1, LOXL2 (Homo sapiens, UniProt Q9Y4K0)
T1 sequence (Q9Y4K0 26-774): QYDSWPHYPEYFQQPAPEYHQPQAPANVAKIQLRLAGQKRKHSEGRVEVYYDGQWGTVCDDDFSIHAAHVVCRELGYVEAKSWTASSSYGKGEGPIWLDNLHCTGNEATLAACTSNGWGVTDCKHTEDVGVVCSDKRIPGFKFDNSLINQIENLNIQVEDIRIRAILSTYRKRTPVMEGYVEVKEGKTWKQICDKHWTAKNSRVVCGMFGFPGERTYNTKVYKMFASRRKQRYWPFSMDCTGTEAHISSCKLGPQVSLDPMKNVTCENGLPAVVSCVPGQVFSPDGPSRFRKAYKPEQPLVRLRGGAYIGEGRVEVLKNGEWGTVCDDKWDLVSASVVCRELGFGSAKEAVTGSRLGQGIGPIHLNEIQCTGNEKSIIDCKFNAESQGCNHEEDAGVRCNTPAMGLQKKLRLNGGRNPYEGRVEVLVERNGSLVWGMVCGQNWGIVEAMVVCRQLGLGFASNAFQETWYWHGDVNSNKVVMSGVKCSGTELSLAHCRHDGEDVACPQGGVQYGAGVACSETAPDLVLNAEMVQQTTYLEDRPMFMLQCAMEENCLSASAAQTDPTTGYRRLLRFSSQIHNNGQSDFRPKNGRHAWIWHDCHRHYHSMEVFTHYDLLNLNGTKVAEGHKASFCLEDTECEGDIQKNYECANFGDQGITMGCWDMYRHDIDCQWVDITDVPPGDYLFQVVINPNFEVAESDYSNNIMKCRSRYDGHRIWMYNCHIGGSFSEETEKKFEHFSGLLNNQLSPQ
Test: Standard Amplex Red assay, rh LOXL2 (putrescine substrate)
Type: biochemical
Settings: for IC50: Amplex Red assay, 30 min pre-incubation
Excerpt: FIGURE 1 Characteristics of the activity‐based probe (ABP) PXS‐5878. (A) Chemical structure of PXS‐5878, with functional subunits denoted with different colours. The fluoroallylamine moiety (blue) was designed to interact with the lysine tyrosylquinone (LTQ) co‐factor within the lysyl oxidase active sites. An extended linker (green) was incorporated to provide optimal separation between the reactive functional group and the tag, avoiding unfavourable steric hindrance. Biotin was selected as a tag, with higher sensitivity found to be achieved using a double tag (red), resulting in PXS‐5878 as the preferred ABP. (B) Concentration‐dependent inhibition of recombinant human (rh) lysyl oxidase‐like 1‐4 (LOXL1‐4) and native bovine LOX in a standard Amplex Red assay with 30 min pre‐incubation; n = 3–4 independent experiments, standard error of mean (SEM). Native bovine LOX was used as a surrogate for human LOX as both enzymes have similar pharmacology for fluoroallylamines.[2], [9] (C) Irreversible nature of PXS‐5878 enzyme inhibition confirmed using a jump dilution assay. Enzyme (rh LOXL1, rh LOXL2 or LOXL3) was pre‐incubated with 10 × IC50 of PXS‐5878 for 30 min, then diluted 100x and remaining activity assessed by Amplex Red assay. […] Each value is an average of three experiments. (D) Schematic representation of the assay development to detect lysyl oxidase activity by PXS‐5878 using a direct enzyme‐linked assay with lysyl oxidases as the target analyte. HRP: horseradish peroxidase; TMB: 3,3′,5,5′‐tetramethylbenzidine, a chromogenic substrate. After target analyte is bound to the plate, PXS‐5878 was incubated for 60 min in the presence or absence of a pan‐LOX inhibitor (β‐aminopropionitrile, [BAPN]) and streptavidin‐HRP is then added. After incubation the plate is washed and TMB added to measure the amount of bound ABP/streptavidin/HRP. This leads to a high signal. Application of BAPN to block the enzymatic site prevents PXS‐5878 from binding, and it is consequently washed off the plate, resulting in a low signal. In the final Simoa® assay, the enzyme is bound by the antibody to the bead. (E) Detection of enzymatically active lysyl oxidases by PXS‐5878. rh LOXL1, LOXL2 or LOXL3 were immobilised on the surface of a microtiter plate and processed as described in (D). Optical density in the absence of the pan‐LOX inhibitor BAPN (high signal) was divided by the value in the presence of BAPN (low signal). Low signal was 1.81 ± 0.77 (n = 8) times larger than blank controls. Two independent replicates were performed (total n = 4–5 for each enzyme).
Small molecule, selective LOXL2 (PXS‐5338, Figure S3) or pan‐LOX inhibitors compete with substrate but ultimately occupy the enzymatic pocket, irrespective of whether the substrate is small (e.g., putrescine) or large (e.g., collagen). […] Further studies with AB0023 were therefore limited to 300 nM.
FIGURE 2 Characteristics of PXS‐5338 and inhibition of lysyl oxidase‐like 2 (LOXL2) enzymatic activity in vitro and in vivo. (A) Chemical structure of PXS‐5338. […] (B) Tissue levels of PXS‐5338 measured 1 and 4 h after a single oral dose of 30 mg/kg in the rat. […] Average data from three different animals. (C) Concentration‐dependent inhibition of native human LOX and rh LOXL1‐4 in a standard Amplex Red assay with 30 min pre‐incubation; n ≥3 independent experiments, standard error of mean (SEM). (D) PXS‐5338 inhibits rh LOXL2 in a time‐dependent manner, with increasing potency observed upon longer incubation with the enzyme. […]

Row | SMILES | Change of potency with increasing substrate (putrescine) concentration (substrate added simultaneously with inhibitor) | IC50 | Concentration at which full inhibition of rh LOXL2 is achieved (standard assay using putrescine or collagen as substrate) | Pre-incubation time after which inhibition of rh LOXL2 is complete (varying pre-incubation times, putrescine as substrate)
1 | CC(C)c1c(Cc2ccc(S(C)(=O)=O)nc2)c2ncccc2n1C/C(F)=C/CN [PXS-5338] | potency of PXS-5338 decreases |  |  | 
2 | NC/C=C(\F)CS(=O)(=O)c1cccc(Cn2cc(-c3cc(OCCCc4cn(CCCCC[C@@H]5SC[C@@H]6NC(=O)N[C@@H]65)nn4)cc(OCCCc4cn(CCCCC[C@@H]5SC[C@@H]6NC(=O)N[C@@H]65)nn4)c3)nn2)c1 [PXS-5878] |  | 203 nM |  | 
3 | CC(C)c1c(Cc2ccc(S(C)(=O)=O)nc2)c2ncccc2n1C/C(F)=C/CN [PXS‐5338] |  | 35 nM | above 300 nM | 2 h
